Data published in PMC3362725, “An open-label, phase 1 study evaluating safety, tolerability, and pharmacokinetics of linifanib (ABT-869) in Japanese patients with solid tumors” (Cancer Chemotherapy and Pharmacology, 2012).

Experiment: Safety and tolerability: adverse events per CTCAE v3, dose-limiting toxicity, phase 1 study
Type: in vivo, human (Japanese patients with solid tumors)
Experimental: A standard 3 + 3 design determined the dose level assignment. Patients were assigned to one of four sequential dose cohorts of once-a-day dose regimen of oral linifanib: 0.05, 0.10, 0.20, or 0.25 mg/kg, administered in the morning. […] Dose-limiting toxicity (DLT) was defined as Grade 4 neutropenia lasting >7 days, Grade 4 thrombocytopenia or decreased hemoglobin, Grade 3 or greater thrombocytopenia (if blood transfusion was required), febrile neutropenia, non-hematological toxicity except for manageable nausea, vomiting, anorexia, diarrhea, constipation or electrolyte abnormality, or a toxicity that required suspension of study drug for >7 days.
Patients self-administered linifanib once daily, on a 21-day cycle after fasting, and treatment continued until disease progression or intolerable toxicity. […] The initial oral dose, 2.5–25.0 mg in increments of 2.5 mg, was determined by the patients’ weights. […] The dose was reduced by 5.0 mg for patients ≥86 kg in the 0.10 mg/kg cohort, for patients in the 0.20 mg/kg cohort who were ≥81 kg at the first reduction and 61–80 and ≥96 kg at the 2nd reduction, and for patients in the 0.25 mg/kg cohort who were ≥66 kg at the first reduction and ≥86 kg at the second reduction. Patients were discontinued if they required dose reduction, specified by cohort: Any reduction (0.05 mg/kg cohort); >1 reduction (0.10 mg/kg cohort, and patients ≤31 kg in the 0.20 mg/kg cohort with an initial 5 mg dose); >2 reductions (0.25 mg/kg cohort, and patients ≥32 kg in the 0.20 mg/kg cohort with an initial ≥7.5 mg dose).
Baseline evaluations included physical examination, body weight, vital signs, 12-lead electrocardiogram, ECOG PS assessment, pregnancy test, laboratory tests, and multiple-gated acquisition scan/echocardiogram. Tumor response and/or disease progression was assessed by computerized tomography (CT) scan or magnetic resonance imaging (MRI) per RECIST [20] at screening and on Day (D) 1 of every second cycle prior to the subsequent treatment period, until tumor progression or until final visit. Complete response and partial response (PR) were defined according to RECIST [20]; objective response rate (ORR) was defined as the proportion of patients with best response of PR or CR among the study population. Safety assessments included laboratory test results and adverse events (AEs), which were graded according to CTCAE v3 [18] and coded by medical dictionary of regulatory activities (MedDRA) 1.0.

Cc1ccc(F)c(NC(=O)Nc2ccc(-c3cccc4[nH]nc(N)c34)cc2)c1 [linifanib, N-(4-(3-amino-1H-indazol-4-yl)phenyl)-N’-(2-fluoro-5-methylphenyl)urea]
2: Blood cholesterol increased, linifanib-related AE, patients (0.05 mg/kg n = 3, G1) | Neutropenia, linifanib-related AE, patients (0.05 mg/kg n = 3, G1) | Weight decreased, linifanib-related AE, patients (0.05 mg/kg n = 3, G1) | Hypertension, linifanib-related AE, patients (0.05 mg/kg n = 3, G2) | ALT increased, linifanib-related AE, patients (0.10 mg/kg n = 6, G1) | Anorexia, linifanib-related AE, patients (0.10 mg/kg n = 6, G1) | Blood urine present, linifanib-related AE, patients (0.10 mg/kg n = 6, G1) | Leukopenia, linifanib-related AE, patients (0.10 mg/kg n = 6, G1) | Weight decreased, linifanib-related AE, patients (0.10 mg/kg n = 6, G1) | Proteinuria, linifanib-related AE, patients (0.10 mg/kg n = 6, G2) | ALT increased, linifanib-related AE, patients (0.20 mg/kg n = 3, G1) | AST increased, linifanib-related AE, patients (0.20 mg/kg n = 3, G1) | Blood cholesterol increased, linifanib-related AE, patients (0.20 mg/kg n = 3, G1) | Blood urine present, linifanib-related AE, patients (0.20 mg/kg n = 3, G1) | Leukopenia, linifanib-related AE, patients (0.20 mg/kg n = 3, G1) | Hypertension, linifanib-related AE, patients (0.20 mg/kg n = 3, G2)
5: Hypertension, linifanib-related AE, patients (0.10 mg/kg n = 6, G2)
1: ALT increased, linifanib-related AE, patients (0.05 mg/kg n = 3, G1) | AST increased, linifanib-related AE, patients (0.05 mg/kg n = 3, G1) | Anorexia, linifanib-related AE, patients (0.05 mg/kg n = 3, G1) | Blood ALKP increased, linifanib-related AE, patients (0.05 mg/kg n = 3, G1) | Blood TG increased, linifanib-related AE, patients (0.05 mg/kg n = 3, G1) | Blood urine present, linifanib-related AE, patients (0.05 mg/kg n = 3, G1) | Diarrhea, linifanib-related AE, patients (0.05 mg/kg n = 3, G1) | Hypertension, linifanib-related AE, patients (0.05 mg/kg n = 3, G1) | Rash, linifanib-related AE, patients (0.05 mg/kg n = 3, G1) | Blood ALKP increased, linifanib-related AE, patients (0.05 mg/kg n = 3, G2) | Blood ALKP increased, linifanib-related AE, patients (0.10 mg/kg n = 6, G1) | Fatigue, linifanib-related AE, patients (0.10 mg/kg n = 6, G1) | Neutropenia, linifanib-related AE, patients (0.10 mg/kg n = 6, G1) | Proteinuria, linifanib-related AE, patients (0.10 mg/kg n = 6, G1) | Thrombocytopenia, linifanib-related AE, patients (0.10 mg/kg n = 6, G1) | Blood TG increased, linifanib-related AE, patients (0.10 mg/kg n = 6, G2) | Fatigue, linifanib-related AE, patients (0.10 mg/kg n = 6, G2) | GGT increased, linifanib-related AE, patients (0.10 mg/kg n = 6, G2) | Leukopenia, linifanib-related AE, patients (0.10 mg/kg n = 6, G2) | Thrombocytopenia, linifanib-related AE, patients (0.10 mg/kg n = 6, G2) | Weight decreased, linifanib-related AE, patients (0.10 mg/kg n = 6, G2) | Neutropenia, linifanib-related AE, patients (0.10 mg/kg n = 6, G3) | Proteinuria, linifanib-related AE, patients (0.10 mg/kg n = 6, G3) | Anorexia, linifanib-related AE, patients (0.20 mg/kg n = 3, G1) | Blood ALKP increased, linifanib-related AE, patients (0.20 mg/kg n = 3, G1) | Diarrhea, linifanib-related AE, patients (0.20 mg/kg n = 3, G1) | Fatigue, linifanib-related AE, patients (0.20 mg/kg n = 3, G1) | GGT increased, linifanib-related AE, patients (0.20 mg/kg n = 3, G1) | Rash, linifanib-related AE, patients (0.20 mg/kg n = 3, G1) | T-wave abnormality, linifanib-related AE, patients (0.20 mg/kg n = 3, G1) | Weight decreased, linifanib-related AE, patients (0.20 mg/kg n = 3, G1) | Anorexia, linifanib-related AE, patients (0.20 mg/kg n = 3, G2) | Blood cholesterol increased, linifanib-related AE, patients (0.20 mg/kg n = 3, G2) | Fatigue, linifanib-related AE, patients (0.20 mg/kg n = 3, G2)
4: AST increased, linifanib-related AE, patients (0.10 mg/kg n = 6, G1)
no Grade 3 linifanib-related AEs: Grade 3 linifanib-related AEs (0.05 mg/kg dose)
Grade 3 ALT increase: dose-limiting toxicity observed (0.10 mg/kg cohort, one patient)
three: Grade 3 linifanib-related AEs (0.10 mg/kg dose)
3: Blood TG increased, linifanib-related AE, patients (0.10 mg/kg n = 6, G1) | Blood TSH increased, linifanib-related AE, patients (0.10 mg/kg n = 6, G1) | Blood cholesterol increased, linifanib-related AE, patients (0.10 mg/kg n = 6, G1) | Diarrhea, linifanib-related AE, patients (0.10 mg/kg n = 6, G1) | GGT increased, linifanib-related AE, patients (0.10 mg/kg n = 6, G1) | Rash, linifanib-related AE, patients (0.10 mg/kg n = 6, G1) | Palmar-plantar erythrodysaesthesia, linifanib-related AE, patients (0.10 mg/kg n = 6, G2) | Blood TG increased, linifanib-related AE, patients (0.20 mg/kg n = 3, G1) | Blood TSH increased, linifanib-related AE, patients (0.20 mg/kg n = 3, G1)
